Data reported in paper PMC8129715 (CPT: Pharmacometrics & Systems Pharmacology, 2021).
Like-named read-outs stand apart in the source and are kept apart here.

What was measured:
P-glycoprotein = details: in vitro; cited from earlier work
[1] = Biliary excretion in rats; assay type: in vivo
[2] = capsule, cited from earlier work; for Observed AUC(0-t) / Observed Cmax: geometric mean; for Observed Cmax: healthy individuals
[3] = tested on: other CYP isoforms (1A2, 2A6, 2B6, 2C8, 2C9, 2C19, 2D6, 2E1, 2J2, 3A5, 4F12); test: Metabolism by recombinant human CYP isoforms; assay type: in vitro ADME; details: 37°C for 20 min; unpublished data reported by Eisai Inc.
CYP2B6 [4] = details: lemborexant 10 mg q.d. for 13 days, bupropion 75 mg on day 10, healthy adults; cited from earlier work
[5] = single 10 mg oral dose, IR tablet, DDI study, cited from earlier work
[6] = PBPK simulation of lemborexant PK in healthy individuals; set-up: species or system human
[7] = cited from earlier work
[8] = single 10 mg oral dose, IR tablet, ref study E2006-A001-008 (NCT02089412), cited from earlier work; for Observed Cmax: geometric mean
CYP3A [9] = details: cited from earlier work
[10] = tested on: breast cancer resistance protein; details: in vitro; cited from earlier work
CYP2B6 [11] = test: In vitro induction; assay type: in vitro ADME; details: unpublished data reported by Eisai Inc.
[12] = multiple 10 mg oral doses, capsule, cited from earlier work
CYP3A4 [13] = test: In vitro induction; assay type: in vitro ADME; details: unpublished data reported by Eisai Inc.
[14] = human mass-balance study, cited from earlier work
[15] = pKa by capillary electrophoresis method; assay type: physicochemical
[16] = In vitro plasma protein binding; assay type: in vitro ADME, human; details: unpublished data reported by Eisai Inc.
CYP3A [17] = test: In vitro time-dependent inhibition; assay type: in vitro ADME; details: unpublished data reported by Eisai Inc.
[18] = Human blood to plasma concentration ratio; assay type: in vitro ADME
[19] = tested on: cryopreserved human hepatocytes; test: Metabolism in cryopreserved human hepatocytes with CYP inhibitors; assay type: in vitro ADME; details: 1-aminobenzotriazole, troleandomycin and ketoconazole
CYP3A4 [20] = biological target: CYP3A4 (Homo sapiens, UniProt P08684); test: Metabolism by recombinant human CYP isoforms; assay type: in vitro ADME; details: 37°C for 20 min; unpublished data reported by Eisai Inc.
[21] = cited from earlier work; remark: listed apart in the source
[22] = multiple 10 mg oral doses, day 1
[23] = multiple 10 mg oral doses, day 14
[24] = single 10 mg oral dose, IR tablet, fasted, food effect study
[25] = single 10 mg oral dose, IR tablet, fed
[26] = single 10 mg oral dose, solution vs capsule
[27] = single 100 mg oral dose, solution vs capsule
[28] = co-administration with rifampicin 600 mg q.d.
[29] = lemborexant 10 mg with fluconazole 200 mg q.d.

Chain of CYP3A4 (Homo sapiens, UniProt P08684) (P08684 whole entry, canonical isoform): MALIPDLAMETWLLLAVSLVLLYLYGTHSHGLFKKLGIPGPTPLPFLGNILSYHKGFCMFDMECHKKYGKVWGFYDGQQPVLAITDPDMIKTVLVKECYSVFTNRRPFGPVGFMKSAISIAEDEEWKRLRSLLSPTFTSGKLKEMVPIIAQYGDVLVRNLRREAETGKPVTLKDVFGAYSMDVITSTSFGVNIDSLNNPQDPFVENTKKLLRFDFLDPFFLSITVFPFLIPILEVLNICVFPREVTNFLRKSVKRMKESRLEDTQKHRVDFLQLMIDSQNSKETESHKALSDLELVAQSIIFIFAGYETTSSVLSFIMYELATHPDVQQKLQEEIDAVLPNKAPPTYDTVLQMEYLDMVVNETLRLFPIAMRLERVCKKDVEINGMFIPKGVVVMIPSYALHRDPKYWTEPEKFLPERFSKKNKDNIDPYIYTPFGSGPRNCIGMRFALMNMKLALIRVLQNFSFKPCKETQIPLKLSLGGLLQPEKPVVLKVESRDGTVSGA

## Cc1ncc(OC[C@@]2(c3cccc(F)c3)C[C@H]2C(=O)Nc2ccc(F)cn2)c(C)n1 [lemborexant]
P-glycoprotein
  transport of lemborexant via P-glycoprotein: negligible
[1]
  biliary excretion of lemborexant: no biliary excretion
[2]; single 2.5 mg oral dose
  Observed AUC(0-t): 74.4 ng·h/mL
  Observed Cmax: 14.9 ng/mL
[2]; single 10 mg oral dose
  Observed AUC(0-t): 274 ng·h/mL
  Observed Cmax: 32.0 ng/mL
[2]; single 10 mg oral dose, median
  Observed Tmax: 1.00 h
[2]; single 100 mg oral dose
  Observed AUC(0-t): 4,300 ng∙h/ml
  Observed Cmax: 242 ng/mL
[3]
  residual ratio after incubation with other recombinant CYP isoforms: ≥ 81%
CYP2B6 [4]
  decrease in plasma exposures of S-bupropion: 45.5%
[5]; geometric mean
  Observed AUC(0-t): 411 ng·h/mL
[5]; median
  Observed Tmax: 1.00 h
[5]; healthy individuals, geometric mean
  Observed Cmax: 54.3 ng/mL
[6]; food effect study 008, 10 mg IR tablet
  fold difference (predicted/observed) of Cmax ratio for fasted and fed conditions: 0.768
[6]; [22]
  Fold difference, predicted/observed, AUC(0-t): 0.92
  Fold difference, predicted/observed, Cmax: 0.86
[6]; [23]
  Fold difference, predicted/observed, AUC(0-t): 1.02
  Fold difference, predicted/observed, Cmax: 0.73
[6]; single 2.5 mg oral dose, solution vs capsule
  Fold difference, predicted/observed, AUC(0-t): 0.89
[6]; single 10 mg oral dose, IR tablet
  Fold difference, predicted/observed, AUC(0-t): 0.80
[6]; [24]
  Fold difference, predicted/observed, AUC(0-t): 0.85
  Fold difference, predicted/observed, Cmax: 0.45
[6]; [25]
  Fold difference, predicted/observed, AUC(0-t): 0.71
  Fold difference, predicted/observed, Cmax: 0.34
[6]; [26]
  Fold difference, predicted/observed, AUC(0-t): 1.29
  Fold difference, predicted/observed, Cmax: 0.85
[6]; [27]
  Fold difference, predicted/observed, AUC(0-t): 0.76
  Fold difference, predicted/observed, Cmax: 1.08
[7]; doses of 5 mg and above
  clinical efficacy (sleep): clinically meaningful sleep benefits
[7]; lemborexant exposures greater than 10 mg
  somnolence adverse events: increased risk of somnolence adverse events
[8]; fasted, food effect study
  Observed Cmax: 57.1 ng/mL
[8]; fasted, food effect study, median
  Observed Tmax: 1.00 h
[8]; fed (standard high-fat meal)
  Observed Cmax: 44.1 ng/mL
CYP3A [9]; co-administered with itraconazole and fluconazole
  increase in AUCR with strong and moderate CYP3A inhibitors: ≤ 3.8 fold
CYP3A [9]; [28]
  reduction of lemborexant AUC(0-inf): 97%
  reduction of lemborexant Cmax: 92%
CYP3A [9]; [29]
  increase in lemborexant AUC(0-t): 3.8 fold
  increase in lemborexant Cmax: 1.6 fold
CYP3A [9]; lemborexant 10 mg with itraconazole 200 mg q.d.
  increase in lemborexant Cmax: 1.36 fold
[10]
  transport of lemborexant via breast cancer resistance protein: negligible
CYP2B6 [11]
  inductive effect on CYP2B6: weak
[12]; day 1, geometric mean
  Observed AUC(0-t): 182 ng·h/mL
  Observed Cmax: 28.0 ng/mL
[12]; day 1, median
  Observed Tmax: 3.25 h
[12]; day 14, geometric mean
  Observed AUC(0-t): 321 ng·h/mL
  Observed Cmax: 44.8 ng/mL
[12]; day 14, median
  Observed Tmax: 1.75 h
CYP3A4 [13]
  inductive effect on CYP3A4: weak
[14]; 10 mg capsule
  CL/F (apparent oral clearance): 32.8 L/h
[14]; [14C]lemborexant 10 mg
  unchanged lemborexant in feces: 13.0 % of dose
  unchanged lemborexant in urine: not detected
[15]
  pKa: < 3.5
[16]
  Main binding protein in plasma: human serum albumin, low‐density lipoprotein, and high‐density lipoprotein
CYP3A [17]
  time-dependent inhibition on CYP3A: weak
[18]; B:P (blood-to-plasma partition ratio), mean, mean value from unpublished data reported by Eisai Inc.
  blood plasma ratio: 0.636
[18]; human blood to plasma concentration ratio (B:P), concentration range 100–1000 ng/ml, unpublished data reported by Eisai Inc.
  blood plasma ratio: 0.61 to 0.656
[19]
  lemborexant metabolism in human hepatocytes in presence of CYP inhibitors: completely inhibited
CYP3A4 [20]
  residual ratio after incubation with recombinant CYP3A4: 30%
[21]; human plasma, 100–1000 ng/ml, no concentration dependency
  in vitro plasma protein binding (bound): 87.4–88.7%
[21]; mean value based on lemborexant 100 ng/ml
  Fu (fraction unbound in plasma): 0.113
